Results on three compounds are retold here after ChEMBL document CHEMBL5143555, “Potentiating the intracellular killing of Staphylococcus aureus by dihydroquinazoline analogues as NorA efflux pump inhibitor” (Bioorg Med Chem, 2022).

Molecules are shown by their SMILES. In brackets after ≈: the same amount, converted by molar mass. Activity calls are given as the source filed them. No cut-off for these calls is given here. A value given as a limit tells only on which side of the number the result lay.

The subject of data set [1] is Staphylococcus aureus. The data set can be described thus: Antibacterial activity against Staphylococcus aureus 1199B measured after 24 hrs by Muller Hinton broth based MTT assay. It is filed as functional.
Data set [2] addresses T1, Quinolone resistance protein NorA (Staphylococcus aureus) (UniProt P0A0J7).
T1 sequence (whole entry): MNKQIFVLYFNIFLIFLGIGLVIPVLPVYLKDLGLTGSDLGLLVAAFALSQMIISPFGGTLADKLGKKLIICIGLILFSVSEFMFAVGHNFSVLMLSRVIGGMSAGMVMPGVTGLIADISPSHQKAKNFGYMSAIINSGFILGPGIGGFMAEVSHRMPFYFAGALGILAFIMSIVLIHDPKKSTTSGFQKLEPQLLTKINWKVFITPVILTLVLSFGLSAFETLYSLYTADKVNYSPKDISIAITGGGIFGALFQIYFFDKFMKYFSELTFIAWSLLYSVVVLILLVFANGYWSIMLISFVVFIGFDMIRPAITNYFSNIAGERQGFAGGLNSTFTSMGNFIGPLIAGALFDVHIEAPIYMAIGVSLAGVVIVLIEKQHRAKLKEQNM
As to the kind of experiment: Inhibition of NorA in Staphylococcus aureus 1199B assessed as potentiation of norfloxacin-induced antibacterial activity by measuring Norfloxacin MIC at sub MIC.

Data set [3] concerns the target T1, Quinolone resistance protein NorA (Staphylococcus aureus). The data set can be described thus: Inhibition of NorA in Staphylococcus aureus 1199B assessed as potentiation of norfloxacin-induced antibacterial activity by measuring Norfloxacin MIC at sub MIC relative to norfloxacin MIC alone.
Data set [4] has the same target. As to the kind of experiment: Inhibition of NorA in Staphylococcus aureus 1199B assessed as potentiation of norfloxacin-induced antibacterial activity by measuring fractional inhibitory concentration.
Data set [5] shares this target. As to the kind of experiment: Inhibition of NorA in Staphylococcus aureus 1199B assessed as potentiation of ethidium bromide-induced antibacterial activity by measuring ethidium bromide MIC at sub MIC.
Data set [6] shares this target. The data set can be described thus: Inhibition of NorA in Staphylococcus aureus 1199B assessed as potentiation of ethidium bromide-induced antibacterial activity by measuring ethidium bromide MIC at sub MIC relative to ethidium bromide MIC alone.
For data set [7] the target is unchanged. As to the kind of experiment: Inhibition of NorA in Staphylococcus aureus 1199B assessed as potentiation of ethidium bromide-induced antibacterial activity by measuring fractional inhibitory concentration.
The target is the same in data set [8]. As to the kind of experiment: Inhibition of NorA in Staphylococcus aureus 1199B assessed as accumulation of norfloxacin at 2.5 ug/ml by measuring fluorescence intensity measured at 5 mins interval for 40 mins by fluorescence spectrophotometry. The following applies: dose 2.5 µg/ml.
Data set [9] has the same target. As to the kind of experiment: Inhibition of NorA in Staphylococcus aureus 1199B assessed as accumulation of ethidium bromide at 2.5 ug/ml by measuring fluorescence intensity measured at 5 mins interval for 40 mins by fluorescence spectrophotometry. The following applies: dose 2.5 µg/ml.
The target is the same in data set [10]. As to the kind of experiment: Inhibition of NorA in Staphylococcus aureus 1199B assessed as accumulation of norfloxacin at 50 ug/ml by measuring fluorescence intensity measured at 5 mins interval for 40 mins by fluorescence spectrophotometry. The following applies: dose 50.0 µg/ml.
The target is the same in data set [11]. As to the kind of experiment: Inhibition of NorA in Staphylococcus aureus 1199B assessed as accumulation of ethidium bromide at 50 ug/ml by measuring fluorescence intensity measured at 5 mins interval for 40 mins by fluorescence spectrophotometry. To be noted: dose 50.0 µg/ml.
Data set [12] has the same target. The data set can be described thus: Inhibition of NorA in Staphylococcus aureus 1199B assessed as accumulation of norfloxacin at 3.9 ug/ml by measuring fluorescence intensity measured at 5 mins interval for 40 mins by fluorescence spectrophotometry. The following applies: dose 3.9 µg/ml.
Data set [13] has as its system Staphylococcus aureus. As to the kind of experiment: Antibacterial activity against Staphylococcus aureus 1199 measured after 24 hrs by Muller Hinton broth based MTT assay. It is filed as functional.
In data set [14] the test system is Staphylococcus aureus. As to the kind of experiment: Antibacterial activity against Staphylococcus aureus K1758 measured after 24 hrs by Muller Hinton broth based MTT assay. It is filed as functional.
The target in data set [15] is T1, Quinolone resistance protein NorA (Staphylococcus aureus). The data set can be described thus: Inhibition of NorA in Staphylococcus aureus 1199B assessed as potentiation of 3.1 ug/mL norfloxacin-induced bactericidal activity by measuring log reduction in bacterial count at 7.8 ug/mL measured after 8 hrs by time-kill kinetics assay. To be noted: dose 7.8 µg/ml.

For data set [16] the target is unchanged. As to the kind of experiment: Inhibition of NorA in Staphylococcus aureus 1199B assessed as potentiation of ethidium bromide-induced bactericidal activity at 15.6 ug/ml measured within 8 hrs by time-kill kinetics assay. The following applies: dose 15.6 µg/ml.
Data set [17] is described as follows: Cytotoxicity against kidney epithelial cells (unknown origin) assessed as cell viability at 50 ug/mL measured after 24 hrs by alamar blue assay relative to control. It is filed as toxicity, cell-based, Fetal kidney cell. The following applies: at 50 µg/mL, read-out: Activity.
The target of data set [18] is T1, Quinolone resistance protein NorA (Staphylococcus aureus). As to the kind of experiment: Inhibition of NorA in Staphylococcus aureus 1199B assessed as potentiation of norfloxacin-induced morphological changes by measuring appearance of rough and dented cell at sub MIC by field emission scanning electron microscopy.
Data set [19] shares this target. As to the kind of experiment: Inhibition of NorA in Staphylococcus aureus 1199B assessed as accumulation of ethidium bromide at 3.9 ug/ml by measuring fluorescence intensity measured at 5 mins interval for 40 mins by fluorescence spectrophotometry. The following applies: dose 3.9 µg/ml.
Data set [20] has as its system Staphylococcus aureus. The data set can be described thus: Down regulation of NorA gene expression in Staphylococcus aureus 1199B at 3.9 ug/ml measured after 2 hrs by qRT-PCR analysis. The following applies: dose 3.9 µg/ml. It is filed as functional.
Data set [21] concerns Staphylococcus aureus. As to the kind of experiment: Down regulation of NorA gene expression in Staphylococcus aureus 1199B at 3.1 ug/ml measured after 2 hrs by qRT-PCR analysis relative to control. It is filed as functional. To be noted: dose 3.1 µg/ml.
For data set [22], the system named is Staphylococcus aureus. The data set can be described thus: Down regulation of NorA gene expression in Staphylococcus aureus 1199B at 3.1 ug/ml measured after 2 hrs in presence of norfloxacin by qRT-PCR analysis relative to norfloxacin. The format is functional. To be noted: dose 3.1 µg/ml.
Data set [23] concerns the target T1, Quinolone resistance protein NorA (Staphylococcus aureus). As to the kind of experiment: Inhibition of NorA in Staphylococcus aureus 1199B infected human THP-1 cells assessed as potentiation of norfloxacin-induced bactericidal activity by measuring reduction in bacterial count at modulatory concentration measured after 24 hrs. The format is cell-based.
For data set [24] the target is unchanged. As to the kind of experiment: Inhibition of NorA in Staphylococcus aureus 1199B infected human THP-1 cells assessed as potentiation of norfloxacin-induced bactericidal activity by measuring reduction in bacterial count at modulatory concentration measured after 24 hrs relative to control. The format is cell-based.
For data set [25] the target is unchanged. As to the kind of experiment: Inhibition of NorA in Staphylococcus aureus 1199B infected human THP-1 cells assessed as potentiation of norfloxacin-induced bactericidal activity by measuring reduction in intracellular invasion at modulatory concentration measured after 24 hrs. It is filed as cell-based.
For data set [26] the target is unchanged. The data set can be described thus: Inhibition of NorA in Staphylococcus aureus 1199B infected human THP-1 cells assessed as potentiation of norfloxacin-induced bactericidal activity by measuring reduction in intracellular proliferation at modulatory concentration measured after 24 hrs. It is filed as cell-based.
Data set [27] shares this target. As to the kind of experiment: Inhibition of NorA in Staphylococcus aureus 1199B infected human THP-1 cells assessed as potentiation of 6.2 ug/ml norfloxacin-induced bactericidal activity by measuring log reduction in bacterial count at 15.6 ug/ml measured after 24 hrs relative to control. The following applies: dose 15.6 µg/ml. The format is cell-based.
Data set [28] has the same target. The data set can be described thus: Inhibition of NorA in Staphylococcus aureus 1199B infected human THP-1 cells assessed as potentiation of norfloxacin-induced bactericidal activity by measuring log reduction in bacterial count measured after 24 hrs relative to vancomycin. The format is cell-based.

For the compound `N#CC(C#N)=NNc1cccc(Cl)c1` [CARBONYL CYANIDE M-CHLOROPHENYLHYDRAZONE], the values for the MIC in [1], in data set [2] and in data set [5] were 20 µg/mL (≈ 97.7 µM), 6.2 µg/mL and 3.1 µg/mL, respectively. In addition, the fold change (FC) in data set [3] was 8; in data set [6] it was 16. For the same compound, the fractional inhibitory concentration index (FICI) in [4] was 0.625; in data set [7], 0.562. Besides, the Flu intensity in [8] stood at 695; in data set [9], 149.

In the case of `COc1ccc(CCN(C)CCCC(C#N)(c2ccc(OC)c(OC)c2)C(C)C)cc1OC` (stereo not given) [VERAPAMIL], the MIC worked out at 400 µg/mL (≈ 880 µM) in data set [1], 12.5 µg/mL in [2] and 6.2 µg/mL in data set [5]. Also, the figures for the fold change (FC) in data set [3] and in [6] were 4 and 8, respectively. The Flu intensity is 1590 in data set [10] and 189 in [11].

For the compound `C=CCOc1ccc(C2N=C(c3ccccc3)c3cc(Cl)ccc3N2C)cc1` (stereo not given), the Flu intensity in data set [12] amounted to 15400; in data set [19], 173. Also, the MIC in data set [1] worked out at 500 µg/mL (≈ 1290 µM); in [13] it was 125 µg/mL (≈ 321 µM); in [14], 31.2 µg/mL (≈ 80.2 µM); in data set [2], 6.2 µg/mL; in data set [5], 12.5 µg/mL. Besides, the fold change (FC) in [3] worked out at 8; in [6], 4; in [21], 8; in data set [22], 9; in data set [24] it was 4. The fractional inhibitory concentration index (FICI) in [4] was 0.141; in data set [7], 0.281. For the same compound, the Activity in data set [15] was more than 3 log10CFU/ml; in data set [23] it was 4.25 log10CFU/ml. Besides, the inhibition entry in [16], in [18], in data set [25] and in data set [26] was “Active” each time. In addition, the viability at 24 h, 50 ug/mL in [17] stood at 94.8%. In [20], the outcome was Active. The FC in [27] worked out at 5; in data set [28], 3.
